The data set relates to mouse primary neurons. The data set is described as follows: Neuroprotection in primary cultures exposed to LPS + IFN-γ. It counts as cell-based. How it is done: To unequivocally confirm that the observed neuroprotective effect was indeed mediated by CB2R activation, an additional experiment was conducted (Figure C).
To prepare primary neurons, brains from fetuses of pregnant CD1 mice were removed (gestational age: 19 days). Neurons were isolated as described in Hradsky et al. Briefly, after removal of the meninges, samples were dissected and digested with 0.25% trypsin (20 min at 37 °C). The effect of trypsin was stopped by adding an equal volume of culture medium (supplemented DMEM). A single-cell suspension was obtained by repeated pipetting followed by passage through a 100 μm-pore mesh. Pelleted (7 min, 200g) cells were resuspended in 2 mL of supplemented DMEM and seeded at a density of 3.5 × 10^5 cells/mL in 6-well plates. […]
Primary cultures of striatal neurons were treated for 24 h with selected SCRAs (100 nM). […] After ∼3 min of incubation at room temperature, 10 μL of the mixture were sampled in a Neubauer chamber and counted with a Countess II FL (Life Technologies, California, CA, USA). The unstained (viable) and stained (nonviable) cells were counted separately, and the percentage of viability was calculated as total number of viable cells/total number of cells × 100.

Structures are written as SMILES.

For `NC(=O)[C@@H]1CCCCN1C(=O)c1nn(Cc2ccc(F)cc2)c2ccccc12` [18o], for the setting “compound alongside SR144528”, the “cell viability after LPS + IFN-γ with CB2R antagonist SR144528” value is listed as approximately 60%. Further, under “primary cultures exposed to LPS + IFN-γ”, the “cell viability after LPS + IFN-γ” value is approximately 100%.

(Values after publication PMC12406204 (Journal of Medicinal Chemistry, 2025).)
